# In patent US5747448A, “Derivatives of cyclodepsipeptide PF 1022” (Meiji Seika Kaisha, Ltd., priority 1993, dated 1998):
# Read-outs that look alike come from different tables or passages of the source.
# Tests used:
# fowl roundworms = test: Fowl Roundworm Eliminating Test; assay type: in vivo; conditions: infected fowls, worms counted to day 7
# Description: Test 1 Fowl Roundworm Eliminating Test Fowls (three fowls per group), which had been artificially infected with fowl roundworms and whose infection therewith had been confirmed by scatoscopy, were used as experimental animals. Upon administration of each test substance, the test substance weighed in a dose (mg) accurately calculated on the basis of the body weight (kg) of each fowl was suspended in carboxymethylcellulose-containing water, and the resulting suspension was administered orally as a single dose unit using a stomach tube. After the administration, the worms eliminated from the fowls were counted daily. Seven days after the administration, the fowl was sacrificed and autopsied and the worms remaining in its intestinal tract were counted. The percent elimination was calculated in accordance with the following calculation equation: [formula] Each test substance is indicated by the corresponding substance code name shown above in Table 1.
# [1] = tested on: Nippostrongylus brasillensis; test: Anthelmintic effects on a rat intestinal nematode (N. brasillensis-infected rats); assay type: in vivo; conditions: male Wistar rats; for Number of remaining worms (average value ± SD): 10 mg/kg p.o. 7 days after inoculation, autopsy 10 days after inoculation; for % Effectiveness: 10 mg/kg p.o., compared with infected control group
# Description: Anthelmintic effects of certain PF1022 derivatives on a rat intestinal nematode were tested in accordance with the following method.
# Sixteen male Wistar rats were divided into eight groups (two rats per group), and about 2,000 larval worms of Nippostrongylus brasillensis were hypodermically inoculated per rat. Seven days after the inoculation, PF1022, PF1022E, PF1022-002, PF1022-003, PF1022-209, PF1022-218 and PF1022-219 were, as test substances, forcedly administered p.o. to the rats in the groups, respectively, in an amount of 10 mg/kg per rat. Upon administration, each test substance (8 mg) was dissolved in 0.2 ml of dimethyl sulfoxide and then, the resultant solution was diluted with distilled water to give a 2 ml suspension. Ten days after the inoculation,the rats were each subjected to autopsy and imaginal worms parasitic on the small intestines were counted.
# As the test results, the average of remaining worms in each of the eight groups and the percent effectiveness of the test substance in each group as compared with that of the infected control group are shown in Table 4.
# [2] = amide bond, 24-membered ring, THF/DMF
# [3] = tested on: Trichostrongylus colubriformis; test: In vivo Anthelmintic Activity Test on Nematodes in sheep (egg excretion); parameters: key: "0" when there were no anthelmintic activities; "2" when excretion of parasite's eggs was observed; "3" when excretion of parasite's eggs stopped, that is, parasitic worms were removed completely; conditions: parasitic worms T, oral gelatin capsule, 0.5 mg/kg
# Description: (§1) Test 2 In vivo Anthelmintic Activity Test on Nematodes To each sheep which had artificially been infected with Trichostrongylus colubriformis (hereinafter abbreviated as "T") and Haemonchus contortus (hereinafter abbreviated as […]), respectively, a test substance weighed in a dose accurately calculated from the weight […] of the sheep was orally administered in the form of a gelatin capsule. The number of parasite's eggs excreted with feces from the sheep was counted quantitatively before and after the administration so that the degree of anthelmintic effects was determined. The anthelmintic effects are evaluated by rated numeral 0, 1, 2 or 3. The anthelmintic effects are rated "0" when there were no anthelmintic activities, "2" when excretion of parasite's eggs was observed, and "3" when excretion of parasite's eggs stopped, that is, parasitic worms were removed completely.
# Haemonchus contortus = test: as above; parameters: key: "0" when there were no anthelmintic activities; "2" when excretion of parasite's eggs was observed; "3" when excretion of parasite's eggs stopped, that is, parasitic worms were removed completely; conditions: parasitic worms H, oral gelatin capsule
# Description: as §1
smiles,measurement,setting,value
"CC(C)C[C@H]1OC(=O)[C@H](CC(C)C)N(C)C(=O)[C@@H](C)OC(=O)[C@H](CC(C)C)N(C)C(=O)[C@@H](Cc2ccccc2)OC(=O)[C@H](CC(C)C)N(C)C(=O)[C@@H](C)OC(=O)[C@H](CC(C)C)N(C)C1=O [PF1022-003, cyclo-(-L-MeLeu-D-Lac-L-MeLeu-D-PhLac-L-MeLeu-D-Lac-L-MeLeu-D-LEUA-)]",% Elimination,fowl roundworms; single oral dose 10 mg/kg,76%
same,Number of remaining worms (average value ± SD),[1],689 ± 48.1
same,% Effectiveness,[1],66.1%
same,"ring closure, isolated yield","[2]; from H-MeLeu-dLEUA-MeLeu-dLac-MeLeu-dPhLac-MeLeu-dLac-OH, EDCI.HCl/HOBt/NMM/KCl/CsCl, 3 steps",44%
"CC(C)C[C@@H]1NC(=O)[C@@H](C)OC(=O)[C@H](CC(C)C)N(C)C(=O)[C@@H](Cc2ccccc2)OC(=O)[C@H](CC(C)C)NC(=O)[C@@H](C)OC(=O)[C@H](CC(C)C)N(C)C(=O)[C@@H](Cc2ccccc2)OC1=O [PF1022-219, cyclo-(L-MeLeu-D-Lac-L-Leu-D-PhLac)2]",Degree of effects,[3],3
same,Number of remaining worms (average value ± SD),[1],2084.5
same,% Effectiveness,[1],0%
"CC(C)C[C@H]1C(=O)O[C@H](Cc2ccc(OC(C)(C)C)cc2)C(=O)N(C)[C@@H](CC(C)C)C(=O)O[C@H](C)C(=O)N(C)[C@@H](CC(C)C)C(=O)O[C@H](Cc2ccccc2)C(=O)N(C)[C@@H](CC(C)C)C(=O)O[C@H](C)C(=O)N1C [PF1022-215, cyclo-(L-MeLeu-D-PhLac-L-MeLeu-D-Lac-L-MeLeu-D-TYRA(O-t-Bu)-L-MeLeu-D-Lac)]",Degree of effects,Haemonchus contortus; 0.25 mg/kg,3
same,% Elimination,fowl roundworms; single oral dose 1.0 mg/kg,37%
same,% Elimination,fowl roundworms; single oral dose 2.0 mg/kg,98%
"CC(C)C[C@H]1C(=O)O[C@H](Cc2ccccc2)C(=O)N(C)[C@@H](CC(C)C)C(=O)O[C@H](C)C(=O)N(C)[C@@H](CC(C)C)C(=O)O[C@H](Cc2ccccc2)C(=O)N(C)[C@@H](CC(C)C)C(=O)O[C@H](C)C(=O)N1C [PF1022, Cyclo-(L-MeLeu-D-Lac-L-MeLeu-D-PhLac-L-MeLeu-D-Lac-L-MeLeu-D-PhLac), reference compound]",Degree of effects,Haemonchus contortus; 0.05 mg/kg,3
same,Degree of effects,[3],3
same,% Elimination,fowl roundworms; single oral dose 0.5 mg/kg,50-70%
same,% Elimination,fowl roundworms; single oral dose 1.0 mg/kg,60-86%
same,% Elimination,fowl roundworms; single oral dose 2.0 mg/kg,100%
same,Number of remaining worms (average value ± SD),[1],403 ± 32.5
same,% Effectiveness,[1]; 10 mg/kg,80%
same,% Effectiveness,"[1]; listed as PF 1022, 10 mg/kg",80.2%
CC(C)C[C@H]1C(=O)O[C@H](C(C)C)C(=O)N(C)[C@@H](CC(C)C)C(=O)O[C@H](Cc2ccccc2)C(=O)N(C)[C@@H](CC(C)C)C(=O)O[C@H](C(C)C)C(=O)N(C)[C@@H](CC(C)C)C(=O)O[C@H](Cc2ccccc2)C(=O)N1C [cyclo(L-MeLeu-D-VALA-L-MeLeu-D-PhLac)2],"ring closure, isolated yield","[2]; from H-MeLeu-dVALA-MeLeu-dPhLac-MeLeu-dVALA-MeLeu-dPhLac-OH, EDCI.HCl/HOBt/NMM/LiCl/KCl/NaCl/CsCl, 0.9 mM, 25.0 °C",56.5%
CCCC[C@H]1OC(=O)[C@H](CC(C)C)N(C)C(=O)[C@@H](Cc2ccccc2)OC(=O)[C@H](CC(C)C)N(C)C(=O)[C@@H](CCCC)OC(=O)[C@H](CC(C)C)N(C)C(=O)[C@@H](Cc2ccccc2)OC(=O)[C@H](CC(C)C)N(C)C1=O [Cyclo-(L-MeLeu-D-norLEUA-L-MeLeu-D-PhLac)2],"ring closure, isolated yield","[2]; from H-MeLeu-dnorLEUA-MeLeu-dPhLac-MeLeu-dnorLEUA-MeLeu-dPhLac-OH, EDCI.HCl/HOBt/NMM/LiCl/NaCl/KCl/CsCl, 0.82 mM, 3 steps",35.8%
"CC(C)CC1C(=O)OC(Cc2ccc(OCc3ccccc3)cc2)C(=O)N(C)C(CC(C)C)C(=O)OC(C)C(=O)N(C)C(CC(C)C)C(=O)OC(Cc2ccc(OCc3ccccc3)cc2)C(=O)N(C)C(CC(C)C)C(=O)OC(C)C(=O)N1C [PF1022-201, cyclo-(L-MeLeu-D-Lac-L-MeLeu-D-TYRA(OBn))2]",Degree of effects,Haemonchus contortus; 0.1 mg/kg,1
same,Degree of effects,Haemonchus contortus; 0.25 mg/kg,3
CC[C@@H](C)[C@H]1OC(=O)[C@H](CC(C)C)N(C)C(=O)[C@@H](Cc2ccccc2)OC(=O)[C@H](CC(C)C)N(C)C(=O)[C@@H]([C@H](C)CC)OC(=O)[C@H](CC(C)C)N(C)C(=O)[C@@H](Cc2ccccc2)OC(=O)[C@H](CC(C)C)N(C)C1=O [Cyclo-(L-MeLeu-D-isoLEUA-L-MeLeu-D-PhLac)2],"ring closure, isolated yield","[2]; from H-MeLeu-disoLEUA-MeLeu-dPhLac-MeLeu-disoLEUA-MeLeu-dPhLac-OH, EDCI.HCl/HOBt/NMM/LiCl/NaCl/KCl/CsCl, 0.87 mM, 3 steps",29%
